The values that follow come from US10407422B2, “Triazolopyridine inhibitors of myeloperoxidase” (priority 2015, dated 2019).

Each structure is given as a SMILES string.

The target in assay [1] is T1, myeloperoxidase (MPO) (Homo sapiens (Human), UniProt P05164). Nature of the assay: MPO chlorination assay (APF assay). The assay is classed as biochemical. Conditions: potency range class. The method, boiled down: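 Chlorinating activity followed by APF cleavage to fluorescein (485/535 nm, 3 min kinetic read) after adding APF and 10 μM H2O2. Beforehand, 200 pM enzyme, compound and 120 mM NaCl sat 10 min at room temperature in 100 mM KPi, pH 7.4. Initial-rate slopes gave % inhibition; IC50 by Hill-slope fit.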

Assay [2] addresses T1, myeloperoxidase (MPO). Briefly: MPO peroxidation assay (Amplex Red assay). The format is biochemical. Conditions: potency range class. The method, boiled down:
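IC50 values come from a four-parameter fit of rates taken from the linear 180-540 s portion of a 15 min kinetic read of resorufin (Ex 535/Em 590 nm). Amplex Red (200 μM) plus 10 mM H2O2 was added after a 10 min room-temperature preincubation of inhibitor with 200 pM MPO and 40 nM H2O2 in 100 mM KPi, pH 7.4.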

T1 sequence (P05164 49-745): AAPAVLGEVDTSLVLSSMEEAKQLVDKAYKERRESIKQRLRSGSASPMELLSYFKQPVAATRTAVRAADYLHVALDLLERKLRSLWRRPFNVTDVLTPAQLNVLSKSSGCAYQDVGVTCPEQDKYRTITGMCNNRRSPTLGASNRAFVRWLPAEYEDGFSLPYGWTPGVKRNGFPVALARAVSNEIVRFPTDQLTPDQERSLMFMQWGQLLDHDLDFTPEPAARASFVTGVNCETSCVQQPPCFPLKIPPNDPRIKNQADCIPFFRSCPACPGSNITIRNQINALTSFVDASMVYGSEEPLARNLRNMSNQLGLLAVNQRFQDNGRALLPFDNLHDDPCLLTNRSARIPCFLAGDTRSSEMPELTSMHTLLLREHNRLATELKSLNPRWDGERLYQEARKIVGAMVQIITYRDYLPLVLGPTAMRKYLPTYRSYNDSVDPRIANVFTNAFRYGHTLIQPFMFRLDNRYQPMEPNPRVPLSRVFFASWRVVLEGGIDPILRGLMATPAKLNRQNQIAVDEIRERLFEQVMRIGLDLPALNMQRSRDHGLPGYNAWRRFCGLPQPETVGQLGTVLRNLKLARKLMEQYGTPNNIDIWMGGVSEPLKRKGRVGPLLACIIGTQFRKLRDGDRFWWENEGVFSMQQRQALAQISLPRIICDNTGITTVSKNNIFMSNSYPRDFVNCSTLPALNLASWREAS

As for `COc1ccc(Cn2cc(Cc3cc(N)nc4[nH]nnc34)cn2)cc1` [Example 141, 7-({1-[(4-Methoxyphenyl)methyl]-1H-pyrazol-4-yl}methyl)-3H-[1,2,3]triazolo[4,5-b]pyridin-5-amine], the IC50 against myeloperoxidase (MPO) [1] and at myeloperoxidase (MPO) [2] was 1 to 100 nM throughout.
With `Nc1cc(Cc2cnn(C(CCO)c3ccccc3)c2)c2nn[nH]c2n1` (centres unmarked) [Example 143, 3-(4-((5-Amino-3H-[1,2,3]triazolo[4,5-b]pyridin-7-yl)methyl)-1H-pyrazol-1-yl)-3-phenylpropan-1-ol], the IC50 against myeloperoxidase (MPO) [1] and on myeloperoxidase (MPO) [2] was 101 to 999 nM in each case.
Consider `CC(C)(C)[Si](C)(C)OCC(c1ccccc1)n1cc(Cc2cc(N)nc3[nH]nnc23)cn1` (centres unmarked) [Example 144], for which the IC50 on myeloperoxidase (MPO) [1] and against myeloperoxidase (MPO) [2] was 101 to 999 nM each time.
`Nc1cc(Cc2cnn(C(CO)c3ccccc3)c2)c2nn[nH]c2n1` (centres unmarked) [Example 145, 2-(4-((5-Amino-3H-[1,2,3]triazolo[4,5-b]pyridin-7-yl)methyl)-1H-pyrazol-1-yl)-2-phenylethanol]: the IC50 on myeloperoxidase (MPO) [1] and against myeloperoxidase (MPO) [2] was 101 to 999 nM each time.
On to `Nc1cc(Cc2cnn(C(CCCO)c3ccccc3)c2)c2nn[nH]c2n1` (centres unmarked) [Example 146, 4-[4-({5-Amino-3H-[1,2,3]triazolo[4,5-b]pyridin-7-yl}methyl)-1H-pyrazol-1-yl]-4-phenylbutan-1-ol], for which the half-maximal inhibitory concentration (IC50) on myeloperoxidase (MPO) [1] and on myeloperoxidase (MPO) [2] was 101 to 999 nM in each case.
In the case of `CC(C)(C)OC(=O)N1CCCc2ccc(Cn3cc(Cc4cc(N)nc5[nH]nnc45)cn3)cc21` [Example 147, tert-Butyl 7-{[4-({5-amino-3H-[1,2,3]triazolo[4,5-b]pyridin-7-yl}methyl)-1H-pyrazol-1-yl]methyl}-1,2,3,4-tetrahydroquinoline-1-carboxylate], the IC50 against myeloperoxidase (MPO) [1] and at myeloperoxidase (MPO) [2] was 101 to 999 nM in each case.
Take `CC(C)(C)OC(=O)N1CCc2ccc(Cn3cc(Cc4cc(N)nc5[nH]nnc45)cn3)cc2C1` [Example 148, tert-Butyl 7-{[4-({5-amino-3H-[1,2,3]triazolo[4,5-b]pyridin-7-yl}methyl)-1H-pyrazol-1-yl]methyl}-1,2,3,4-tetrahydroisoquinoline-2-carboxylate]: the IC50 at myeloperoxidase (MPO) [1] and against myeloperoxidase (MPO) [2] was 101 to 999 nM each time.
In the case of `COc1ccc(Cn2cc(Cc3cc(N)nc4[nH]nnc34)cn2)cn1` [Example 149, 7-({1-[(6-Methoxypyridin-3-yl)methyl]-1H-pyrazol-4-yl}methyl)-3H-[1,2,3]triazolo[4,5-b]pyridin-5-amine], the results for the IC50 on myeloperoxidase (MPO) [1] and against myeloperoxidase (MPO) [2] were 101 to 999 nM and 1 to 100 nM, respectively.
For `Nc1cc(Cc2cnn(Cc3ccc4c(c3)OCO4)c2)c2nn[nH]c2n1` [Example 150, 7-{[1-(2H-1,3-Benzodioxol-5-ylmethyl)-1H-pyrazol-4-yl]methyl}-3H-[1,2,3]triazolo[4,5-b]pyridin-5-amine] the same measures were 101 to 999 nM and 1 to 100 nM.
For `Nc1cc(Cc2cnn(Cc3ccc4c(c3)OCCO4)c2)c2nn[nH]c2n1` [Example 151, 7-{[1-(2,3-Dihydro-1,4-benzodioxin-6-ylmethyl)-1H-pyrazol-4-yl]methyl}-3H-[1,2,3]triazolo[4,5-b]pyridin-5-amine] the same measures were 101 to 999 nM and 1 to 100 nM.
In the case of `Nc1cc(Cc2cnn(Cc3ccc4c(c3)NCCC4)c2)c2nn[nH]c2n1` [Example 152, 7-{[1-(1,2,3,4-Tetrahydroquinolin-7-ylmethyl)-1H-pyrazol-4-yl]methyl}-3H-[1,2,3]triazolo[4,5-b]pyridin-5-amine], the figures for the IC50 on myeloperoxidase (MPO) [1] and at myeloperoxidase (MPO) [2] were 1 to 100 nM and 1000 to 10000 nM, respectively.
For `Nc1cc(Cc2cnn(Cc3ccc4c(c3)CNCC4)c2)c2nn[nH]c2n1` [Example 153, 7-{[1-(1,2,3,4-Tetrahydroisoquinolin-7-ylmethyl)-1H-pyrazol-4-yl]methyl}-3H-[1,2,3]triazolo[4,5-b]pyridin-5-amine] the same measures were 1 to 100 nM and 1 to 100 nM.
For `N#Cc1cccc(-c2ccc(Cn3cc(Cc4cc(N)nc5[nH]nnc45)cn3)cc2)c1` [Example 154, 3-(4-{[4-({5-Amino-3H-[1,2,3]triazolo[4,5-b]pyridin-7-yl}methyl)-1H-pyrazol-1-yl]methyl}phenyl)benzonitrile] the same measures were 101 to 999 nM and 101 to 999 nM.
Take `Nc1cc(Cc2cnn(Cc3cccc(-c4ccc(OC(F)(F)F)cc4)c3)c2)c2nn[nH]c2n1` [Example 155, 7-{[1-({3-[4-(Trifluoromethoxy)phenyl]phenyl}methyl)-1H-pyrazol-4-yl]methyl}-3H-[1,2,3]triazolo[4,5-b]pyridin-5-amine]: the IC50 against myeloperoxidase (MPO) [1] and at myeloperoxidase (MPO) [2] was 101 to 999 nM each time.
Turning to `COc1ncc(-c2cccc(Cn3cc(Cc4cc(N)nc5[nH]nnc45)cn3)c2)cn1` [Example 156, 7-[(1-{[3-(2-Methoxypyrimidin-5-yl)phenyl]methyl}-1H-pyrazol-4-yl)methyl]-3H-[1,2,3]triazolo[4,5-b]pyridin-5-amine], the IC50 against myeloperoxidase (MPO) [1] and at myeloperoxidase (MPO) [2] was 1 to 100 nM throughout.
As to `Nc1cc(Cc2cnn(Cc3cccc(-c4cnoc4)c3)c2)c2nn[nH]c2n1` [Example 157, 7-[(1-{[3-(1,2-Oxazol-4-yl)phenyl]methyl}-1H-pyrazol-4-yl)methyl]-3H-[1,2,3]triazolo[4,5-b]pyridin-5-amine], the half-maximal inhibitory concentration (IC50) at myeloperoxidase (MPO) [1] and on myeloperoxidase (MPO) [2] was 101 to 999 nM each time.
Turning to `N#Cc1cccc(Cn2cc(Cc3cc(N)nc4[nH]nnc34)cn2)c1` [Example 158, 3-{[4-({5-Amino-3H-[1,2,3]triazolo[4,5-b]pyridin-7-yl}methyl)-1H-pyrazol-1-yl]methyl}benzonitrile], the IC50 on myeloperoxidase (MPO) [1] and against myeloperoxidase (MPO) [2] was 1 to 100 nM in each case.
As to `CN1CCc2cc(Cn3cc(Cc4cc(N)nc5[nH]nnc45)cn3)ccc2C1` [Example 159, -((1-((2-Methyl-1,2,3,4-tetrahydroisoquinolin-6-yl)methyl)-1H-pyrazol-4-yl)methyl)-3H-[1,2,3]triazolo[4,5-b]pyridin-5-amine], the IC50 at myeloperoxidase (MPO) [1] is 101 to 999 nM; on myeloperoxidase (MPO) [2] it was 1 to 100 nM.
For `Nc1cc(Cn2nnc3ccccc32)c2nn[nH]c2n1` [Example 160, 7-(1H-1,2,3-Benzotriazol-1-ylmethyl)-3H-[1,2,3]triazolo[4,5-b]pyridin-5-amine] the same measures were 1 to 100 nM and 1 to 100 nM.
For `Nc1cc(Cn2ncc(-c3ccccc3)n2)c2nn[nH]c2n1` [Example 161, 7-[(4-Phenyl-2H-1,2,3-triazol-2-yl)methyl]-3H-[1,2,3]triazolo[4,5-b]pyridin-5-amine] the same measures were 1000 to 10000 nM and 101 to 999 nM.
The corresponding values for `Nc1cc(Cn2cc(-c3ccccc3)nn2)c2nn[nH]c2n1` [Example 162, 7-[(4-Phenyl-1H-1,2,3-triazol-1-yl)methyl]-3H-[1,2,3]triazolo[4,5-b]pyridin-5-amine] are 101 to 999 nM and 101 to 999 nM.
As for `Nc1cc(Cn2nc3ccc(Cl)cc3n2)c2nn[nH]c2n1` [Example 163, 7-[(5-Chloro-2H-1,2,3-benzotriazol-2-yl)methyl]-3H-[1,2,3]triazolo[4,5-b]pyridin-5-amine], the IC50 against myeloperoxidase (MPO) [1] and against myeloperoxidase (MPO) [2] was 1000 to 10000 nM in each case.
As for `Nc1cc(Cn2nc3cccc(Cl)c3n2)c2nn[nH]c2n1` [Example 164, 7-[(4-Chloro-2H-1,2,3-benzotriazol-2-yl)methyl]-3H-[1,2,3]triazolo[4,5-b]pyridin-5-amine], the IC50 on myeloperoxidase (MPO) [1] and against myeloperoxidase (MPO) [2] was 1000 to 10000 nM each time.
Turning to `Nc1cc(Cn2nnc3cccc(Cl)c32)c2nn[nH]c2n1` [Example 165, 7-[(7-Chloro-1H-1,2,3-benzotriazol-1-yl)methyl]-3H-[1,2,3]triazolo[4,5-b]pyridin-5-amine], the IC50 on myeloperoxidase (MPO) [1] and against myeloperoxidase (MPO) [2] was 101 to 999 nM throughout.
With `Nc1cc(Cn2nnc3c(Cl)cccc32)c2nn[nH]c2n1` [Example 166], the IC50 against myeloperoxidase (MPO) [1] and against myeloperoxidase (MPO) [2] was 1000 to 10000 nM throughout.
For `Nc1cc(Cn2nnc3ccc(Cl)cc32)c2nn[nH]c2n1` [Example 167, 7-[(6-Chloro-1H-1,2,3-benzotriazol-1-yl)methyl]-3H-[1,2,3]triazolo[4,5-b]pyridin-5-amine], the IC50 against myeloperoxidase (MPO) [1] and against myeloperoxidase (MPO) [2] was 101 to 999 nM throughout.
For `Nc1cc(Cn2nnc3cc(Cl)ccc32)c2nn[nH]c2n1` [Example 168, 7-[(5-Chloro-1H-1,2,3-benzotriazol-1-yl)methyl]-3H-[1,2,3]triazolo[4,5-b]pyridin-5-amine], the IC50 is 101 to 999 nM against myeloperoxidase (MPO) [1] and 1 to 100 nM against myeloperoxidase (MPO) [2].
The corresponding values for `Nc1cc(Cn2nnc(-c3ccccc3)n2)c2nn[nH]c2n1` [Example 169, 7-[(5-Phenyl-2H-1,2,3,4-tetrazol-2-yl)methyl]-3H-[1,2,3]triazolo[4,5-b]pyridin-5-amine] are 101 to 999 nM and 101 to 999 nM.
For `Nc1cc(Cn2nnc3ccc(Cc4ccccc4)cc32)c2nn[nH]c2n1` [Example 170, 7-[(6-Benzyl-1H-1,2,3-benzotriazol-1-yl)methyl]-3H-[1,2,3]triazolo[4,5-b]pyridin-5-amine] the same measures were 101 to 999 nM and 101 to 999 nM.
`Nc1cc(Cn2nnc3cc(Cc4ccccc4)ccc32)c2nn[nH]c2n1` [Example 171, 7-[(5-Benzyl-1H-1,2,3-benzotriazol-1-yl)methyl]-3H-[1,2,3]triazolo[4,5-b]pyridin-5-amine]: the half-maximal inhibitory concentration (IC50) on myeloperoxidase (MPO) [1] and against myeloperoxidase (MPO) [2] was 101 to 999 nM in each case.
Turning to `COc1cc2ccc(Cn3cc(Cc4cc(N)nc5[nH]nnc45)cn3)cc2cn1` [Example 172, 7-((1-((3-Methoxyisoquinolin-7-yl)methyl)-1H-pyrazol-4-yl)methyl)-3H-[1,2,3]triazolo[4,5-b]pyridin-5-amine], the half-maximal inhibitory concentration (IC50) at myeloperoxidase (MPO) [1] lay in the range of 101 to 999 nM; against myeloperoxidase (MPO) [2] it was 1 to 100 nM.

By IC50 is commonly meant the concentration that gives 50% inhibition. A higher IC50 goes with weaker potency.
